The nature of series [1]: Visual dissolution and physical stability of bortezomib formulations with low concentrations of benzyl alcohol or DMSO in water. The class given is physicochemical. To be noted: target 2.5 mg/mL; benzyl alcohol (2% v/v), DMSO (5% v/v) or combination, water added afterwards. How it is done:
Initial formulation experiments with low concentrations of various non-aqueous solvents were conducted targeting a bortezomib concentration of 2.5 mg/mL. Attempts to solubilize bortezomib were conducted using low concentrations of benzyl alcohol (2% v/v), or dimethyl sulfoxide (5% v/v), or a combination of these solvents. […] For these formulations, the non-aqueous solvent was added to bortezomib to dissolve it, followed by addition of water to the bortezomib-solvent mixture.
Various concentrations of DMSO were explored as the non-aqueous component of the formulation (2% v/v to 5% v/v in water). Bortezomib was first completely dissolved in the batch volume of DMSO to form a concentrated “premix” solution prior to making up the batch to the target concentration (2.5 mg/mL) with water. This was done to facilitate the subsequent dissolution of bortezomib in the aqueous component.

Series [2] in a line: Estimated solubility of bortezomib in select non-aqueous solvents (visual, incremental solvent addition). The series is classed as physicochemical. To be noted: for Observation: approximately 25 mg. The method, then: The appearance of the solution was recorded.

Regarding `CC(C)C[C@H](NC(=O)[C@H](Cc1ccccc1)NC(=O)c1cnccn1)B(O)O` [Bortezomib, [(1R)-3-methyl-1-[[(2S)-1-oxo-3-phenyl-2-[(pyrazinylcarbonyl)amino]propyl]amino]butyl] boronic acid], the “Outcome of dissolution attempt” value in series [1] is on record as “precipitated after addition of water”. Further, the Observation entry in series [2] (N-methyl pyrrolidone (NMP)) was “Completely dissolved after 1 mL”; in series [2] (benzyl alcohol) it was “Completely dissolved after 0.5 mL”; in series [2] (dimethyl sulfoxide (DMSO)), “Completely dissolved after 0.5 mL”; in series [2] (glycerol, up to 10 mL) it was “No significant dissolution observed up”; in series [2] (polyethylene glycol 400, up to 10 mL), “No significant dissolution observed up”. For the same molecule, the figures for the “Observation: solvent needed to dissolve approximately 25 mg” value in series [2] (alcohol (ethanol)) and in series [2] (propylene glycol) were “Approximately 5.5 mL of solvent” and “Approximately 7 mL of solvent needed”, respectively.

These data come from US11672813B2, “Bortezomib compositions” (MAIA Pharmaceuticals, Inc., priority 2021, dated 2023).
